Assay results as given in the supplement of paper PMC10307832.

What was measured:
4EGI-1 = compound: O=C(O)C(Cc1ccccc1[N+](=O)[O-])=NNc1nc(-c2ccc(Cl)c(Cl)c2)cs1 (mixture of isomers) [4EGI-1]; test: relative viability (nuclei count vs DMSO), 5 days (fraction); higher = more cells survive
How it was run: (§1)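 In 1536-well plates, lung cancer cell lines rested overnight at 37 °C before five library-drug doses (not always all listed), √10 apart, were pinned onto vehicle-anchored plates. Nuclei were counted with MetaXpress from 4× Hoechst images taken after 5 days without medium change. Viability compares treated-well with vehicle-well nuclei as a median over plates, and plates needed control CV below 25% plus at least one doubling to pass.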

XMD8-85 = compound: CN1CCN(CC1)C2=CC(=C(C=C2)NC3=NC=C4C(=N3)N(C5=CC=CC=C5C(=O)N4C)C)OC [XMD8-85]; test: as above
How it was run: as §1

With NCI-H1792 the relative viability (4EGI-1; 0.5 µM) was 0.99, the relative viability (4EGI-1; 1.581 µM) was 1.1 and the relative viability (4EGI-1; 5 µM) was 0.941. The relative viability (4EGI-1; 15.81 µM) was 0.903, the relative viability (4EGI-1; 50 µM) was 0.608 and the relative viability (XMD8-85; 0.253 µM) was 0.904. The relative viability (XMD8-85; 2.53 µM) was 1.14 and the relative viability (XMD8-85; 8 µM) was 0.704.
